Assay results as given in US20030134899A1, “Pharmaceutical combination of bicalutamide and tamoxifen for providing an anti-androgenic effect and an anti-oestrogenic effect” (priority 2002, published 2003).

What was measured:
testosterone = conditions: cited from earlier work
free testosterone = test: Human clinical trial: free testosterone concentrations in healthy male volunteers; type: in vivo
From the text: Key Inclusion Criteria: Male, aged 65 years or above showing no clinically significant abnormalities in routine haematological and biochemical tests and having endocrinology and prostate specific antigen (PSA) results within normal limits. Key Exclusion Criteria: Previous inclusion in a clinical trial using CASODEXTM; concurrent treatment with any drugs with the exception of paracetomol; history or presence of any testicular abnormality; history or presence of gastrointestinal, hepatic or renal disease, or other condition known to interfere with the absorption, distribution, metabolism or excretion of drugs; a clinically significant illness within 2 weeks of trial commencement; definite or suspected personal or family history of significant adverse drug reactions or any hypersensitivity to CASODEXTM or […]; treatment within the previous 3 months with any drugs known to have a well-defined potential for hepatotoxicity or hepatic interaction. Dosage: The CASODEXTM was administered daily at a dose of 150 mg and the […] was administered daily at a dose of 20 mg. All treatments were in tablet form and taken once daily. Daily treatment with CASODEXTM plus […] was for 6 weeks, this period being selected as the minimum time to attain steady-state plasma concentrations for the drugs. Another set of volunteers were administered CASODEXTM alone at a daily dose of 150 mg for 4 weeks. All treatments were in tablet form and taken once daily. Key Assessment: Free testosterone concentrations were measured during the course of the trial.

testosterone, LH = conditions: cited from earlier work

Row | Structure (SMILES) | Increase in mean free testosterone concentration (testosterone; after 24 weeks of daily 150 mg CASODEX alone, prostate cancer (Verhelst et al 1994)) [%] | Change of basal level of total testosterone (testosterone; single agent therapy in humans (Blackledge et al 1996)) | Free testosterone, ratio to Day 1 (free testosterone; Day 29, CASODEX alone 150 mg daily for 4 weeks) | Free testosterone concentration, gmean (free testosterone; Day 29, CASODEX alone 150 mg daily for 4 weeks, n=7, pre-dose Day 1 baseline gmean 0.048) [nmol/L] | Increase in mean free testosterone concentration (free testosterone; by the end of the treatment period (4 weeks), CASODEX alone 150 mg daily) [%] | Effect on mean serum testosterone, oestradiol, LH levels, LH pulse frequency and amplitude (testosterone, LH; 13 normal men, tamoxifen for 6 weeks (Spijkstra et al 1988)) | Effect on serum testosterone levels (testosterone, LH; tamoxifen administration to men (Lewis-Jones et al 1987)) | Effect on testosterone and LH (testosterone, LH; tamoxifen intake in adult men (Comhaire et al 1995)) | Effect on basal LH, FSH and testosterone levels (testosterone, LH; three months' treatment, normogonadotrophic oligozoospermic men (van Bergeijk et al 1986))
1 | CC(O)(CS(=O)(=O)c1ccc(F)cc1)C(=O)Nc1ccc(C#N)c(C(F)(F)F)c1 (stereo not drawn) [CASODEX™, 4′-cyano-α′,α′,α′-trifluoro-3-(4-fluorophenylsulphonyl)-2-hydroxy-2-methylpropiono-m-toluidide] | 57 | approximate doubling | 1.58 | 0.076 | 58 | – | – | – | –
2 | CC/C(=C(\c1ccccc1)c1ccc(OCCN(C)C)cc1)c1ccccc1 [tamoxifen, (Z)-2-[p-(1,2-diphenylbut-1-enyl)phenoxy]ethyldimethylamine] | – | – | – | – | – | An increase | marked elevation | increase testosterone and LH | stimulated basal LH, FSH and testosterone levels
